Experimental data from US6645970B2, “Indolylmaleimide derivatives” (Novartis AG, priority 2000, dated 2003).
Values belong to the compound of their own block, whether it stands above or below them.

Key:
Human recombinant PKCη = target: T1, Human recombinant PKCη (Homo sapiens, UniProt P24723); experiment: Protein Kinase Cη Assay; type: biochemical; conditions: 10 μM ATP
T1 construct: purchased PanVera
Description: (§1) The compounds of formula I are tested for their activity on different PKC isoforms according to a published method (D. Geiges et al. Biochem. Pharmacol. 1997;53:865-875) The assay is performed in a 96-well polypropylene microtiterplate (Costar 3794) that has been previously siliconized with Sigmacote (Sigma SL-2). The reaction mixture (50 μl) contains 10 μl the relevant PKC isozyme together with 25 μl of the test compound and 15 μl of a mix solution that contains 200 μg/ml protamine sulfate, 10 mM Mg(NO3)2, 10 μM ATP (Boehringer 519987) and 3750 Bq of ^33P-ATP (Hartmann Analytic SFC301, 110TBq/mmol) in 20 mM Tris-buffer pH 7.4+0.1% BSA. Incubation is performed for 15 min at 32° C. in a microtiterplate shaking incubator (Biolabo Scientific Instruments). Reaction is stopped by adding 10 μl of 0.5 M Na2EDTA, pH 7.4. 50 μl of mixture are pipetted onto a pre-wetted phosphocellulose paper (Whatmann 3698-915) under gentle pressure. Non-incorporated ATP is washed away with 100 μl bi-dist H2O. The paper is washed twice in 0.5% H3PO4 for 15 min followed by 5 min in EtOH. Thereafter the paper is dryed and placed in an omnifilter (Packard 6005219), and overlayed with 10 μl/well of Microscint-O (Packard 6013611) before counting in a Topcount radioactivity counter (Packard). […] IC50 value are calculated from the graph by sigmoidal curve fitting. […]

Human recombinant PKCε = target: T2, Human recombinant PKCε (Homo sapiens, UniProt Q02156); experiment: Protein Kinase Cε Assay; type: biochemical; conditions: 10 μM ATP
T2 construct: purchased Oxford Biomedical Research
T2 sequence (Q02156 1-737): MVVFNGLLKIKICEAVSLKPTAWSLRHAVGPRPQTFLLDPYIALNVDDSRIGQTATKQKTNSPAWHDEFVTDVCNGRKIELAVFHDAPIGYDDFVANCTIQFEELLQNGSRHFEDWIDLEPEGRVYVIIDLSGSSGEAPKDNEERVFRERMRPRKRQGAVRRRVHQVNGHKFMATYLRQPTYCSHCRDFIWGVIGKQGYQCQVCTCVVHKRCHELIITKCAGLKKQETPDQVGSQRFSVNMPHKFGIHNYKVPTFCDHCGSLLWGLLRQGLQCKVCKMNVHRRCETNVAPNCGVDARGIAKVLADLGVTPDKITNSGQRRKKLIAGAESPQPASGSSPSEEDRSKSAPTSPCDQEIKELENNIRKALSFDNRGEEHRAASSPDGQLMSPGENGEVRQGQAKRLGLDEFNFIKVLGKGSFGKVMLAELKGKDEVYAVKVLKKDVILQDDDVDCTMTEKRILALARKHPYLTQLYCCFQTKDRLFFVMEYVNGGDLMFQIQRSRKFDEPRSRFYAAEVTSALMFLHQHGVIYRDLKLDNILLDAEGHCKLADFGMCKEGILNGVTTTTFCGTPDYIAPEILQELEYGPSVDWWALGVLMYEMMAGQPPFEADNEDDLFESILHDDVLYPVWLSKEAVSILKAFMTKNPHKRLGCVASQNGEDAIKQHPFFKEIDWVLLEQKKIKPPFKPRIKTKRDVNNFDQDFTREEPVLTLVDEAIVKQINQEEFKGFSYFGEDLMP
Description: as §1

Human recombinant PKCα = target: T3, Human recombinant PKCα (Homo sapiens, UniProt P17252); experiment: Protein Kinase Cα Assay; type: biochemical; conditions: 10 μM ATP
T3 construct: purchased Oxford Biomedical Research
Description: The compounds of formula I are tested for their activity on different PKC isoforms according to a published method (D. Geiges et al. Biochem. Pharmacol. 1997;53:865-875) The assay is performed in a 96-well polypropylene microtiterplate (Costar 3794) that has been previously siliconized with Sigmacote (Sigma SL-2). The reaction mixture (50 μl) contains 10 μl the relevant PKC isozyme together with 25 μl of the test compound and 15 μl of a mix solution that contains 200 μg/ml protamine sulfate, 10 mM Mg(NO3)2, 10 μM ATP (Boehringer 519987) and 3750 Bq of ^33P-ATP (Hartmann Analytic SFC301, 110TBq/mmol) in 20 mM Tris-buffer pH 7.4+0.1% BSA. Incubation is performed for 15 min at 32° C. in a microtiterplate shaking incubator (Biolabo Scientific Instruments). Reaction is stopped by adding 10 μl of 0.5 M Na2EDTA, pH 7.4. 50 μl of mixture are pipetted onto a pre-wetted phosphocellulose paper (Whatmann 3698-915) under gentle pressure. Non-incorporated ATP is washed away with 100 μl bi-dist H2O. The paper is washed twice in 0.5% H3PO4 for 15 min followed by 5 min in EtOH. Thereafter the paper is dryed and placed in an omnifilter (Packard 6005219), and overlayed with 10 μl/well of Microscint-O (Packard 6013611) before counting in a Topcount radioactivity counter (Packard). […] IC50 value are calculated from the graph by sigmoidal curve fitting.

[1] = test system: Rat Heart transplantation (graft survival); experiment: Rat Heart transplantation; type: in vivo; conditions: Lewis and BN strains, 30 mg/kg/day
Description: The strain combination used: Male Lewis (RT^1 haplotype) and BN (RT^1 haplotype). The animals are anaesthetised using inhalational isofluorane. […] The aorta is ligated and divided distal to the first branch and the brachiocephalic trunk is divided at the first bifurcation. The left pulmonary artery is ligated and divided and the right side divided but left open. All other vessels are dissected free, ligated and divided and the donor heart is removed into iced saline.
The recipient is prepared by dissection and cross-clamping of the infra-renal abdominal aorta and vena cava. The graft is implanted with end-to-side anastomoses, using 10/0 monofilament suture, between the donor brachiocephalic trunk and the recipient aorta and the donor right pulmonary artery to the recipient vena cava. The clamps are removed, the graft tethered retroabdominally, the abdominal contents washed with warm saline and the animal is closed and allowed to recover under a heating lamp. Graft survival is monitored by daily palpation of the beating donor heart through the abdominal wall. Rejection is considered to be complete when heart beat stops. Increases of graft survival are obtained in animals treated with a compound of formula I administered orally at a daily dose of 1 to 30 mg/kg.

Human recombinant PKCβ1 = target: T4, Human recombinant PKCβ1 (Homo sapiens, UniProt P05771); experiment: Protein Kinase Cβ1 Assay; type: biochemical; conditions: human recombinant PKCβ1, 10 μM ATP
T4 construct: purchased Oxford Biomedical Research
Description: as §1

Human recombinant PKCδ = target: T5, Human recombinant PKCδ (Homo sapiens, UniProt Q05655); experiment: Protein Kinase Cδ Assay; type: biochemical; conditions: 10 μM ATP
T5 construct: purchased Oxford Biomedical Research
Description: as §1

[2] = test system: Jurkat cells transfected with a human interleukin-2 promoter/reporter gene construct; experiment: CD28 costimulation assay; type: cell-based; conditions: stimulated Jurkat cells, IL-2 promoter luciferase reporter, 5.5 hours
[3] = test system: spleen cells from CBA and BALB/c mice; experiment: Allogeneic Mixed Lymphocyte Reaction (MLR); type: cell-based; conditions: Mus musculus, two-way MLR, 3H-thymidine incorporation
Description: The two-way MLR is performed according to standard procedures (J. Immunol. Methods, 1973, 2, 279 and Meo T. et al., Immunological Methods, New York, Academic Press, 1979, 227-39). Briefly, spleen cells from CBA and BALB/c mice (1.6×10^5 cells from each strain per well in flat bottom tissue culture microtiter plates, 3.2×10^5 in total) are incubated in RPMI medium containing 10% FCS, 100 U/ml penicillin, 100 μg/mI streptomycin (Gibco BRL, Basel, Switzerland), 50 μM 2-mercaptoethanol (Fluka, Buchs, Switzerland) and serially diluted compounds. Seven three-fold dilution steps in duplicates per test compound are performed. After four days of incubation 1 μCi ^3H-thymidine is added. Cells are harvested after an additional five-hour incubation period, and incorporated ^3H-thymidine is determined according to standard procedures. Background values (low control) of the MLR are the proliferation of BALB/c cells alone. Low controls are subtracted from all values. High controls without any sample are taken as 100% proliferation. Percent inhibition by the samples is calculated, and the concentrations required for 50% inhibition (IC50 values) are determined.

Human recombinant PKCθ = Human recombinant PKCθ (Homo sapiens, UniProt Q04759); experiment: Protein Kinase C θ Assay; type: biochemical; conditions: 10 μM ATP
Text: Human recombinant PKCθ is used under the assay conditions as described above.

T4 sequence (P05771 whole entry): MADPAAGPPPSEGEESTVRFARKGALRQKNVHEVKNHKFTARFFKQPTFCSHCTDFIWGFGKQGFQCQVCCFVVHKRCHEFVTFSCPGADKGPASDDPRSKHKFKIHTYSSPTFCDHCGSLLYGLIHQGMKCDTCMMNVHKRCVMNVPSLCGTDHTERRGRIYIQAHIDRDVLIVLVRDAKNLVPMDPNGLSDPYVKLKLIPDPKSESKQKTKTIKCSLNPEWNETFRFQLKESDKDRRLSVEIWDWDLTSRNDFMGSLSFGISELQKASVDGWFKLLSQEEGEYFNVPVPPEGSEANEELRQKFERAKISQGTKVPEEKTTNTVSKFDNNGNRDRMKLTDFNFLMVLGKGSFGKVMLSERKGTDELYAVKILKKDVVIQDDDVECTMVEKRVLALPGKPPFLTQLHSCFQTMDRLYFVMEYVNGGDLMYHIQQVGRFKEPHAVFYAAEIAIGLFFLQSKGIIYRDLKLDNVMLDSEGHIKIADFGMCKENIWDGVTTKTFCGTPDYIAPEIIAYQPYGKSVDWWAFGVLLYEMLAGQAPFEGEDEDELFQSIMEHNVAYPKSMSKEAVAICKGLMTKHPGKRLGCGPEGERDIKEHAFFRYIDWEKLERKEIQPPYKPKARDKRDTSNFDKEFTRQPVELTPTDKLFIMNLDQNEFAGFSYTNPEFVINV
Human recombinant PKCθ, sequence (Q04759 whole entry): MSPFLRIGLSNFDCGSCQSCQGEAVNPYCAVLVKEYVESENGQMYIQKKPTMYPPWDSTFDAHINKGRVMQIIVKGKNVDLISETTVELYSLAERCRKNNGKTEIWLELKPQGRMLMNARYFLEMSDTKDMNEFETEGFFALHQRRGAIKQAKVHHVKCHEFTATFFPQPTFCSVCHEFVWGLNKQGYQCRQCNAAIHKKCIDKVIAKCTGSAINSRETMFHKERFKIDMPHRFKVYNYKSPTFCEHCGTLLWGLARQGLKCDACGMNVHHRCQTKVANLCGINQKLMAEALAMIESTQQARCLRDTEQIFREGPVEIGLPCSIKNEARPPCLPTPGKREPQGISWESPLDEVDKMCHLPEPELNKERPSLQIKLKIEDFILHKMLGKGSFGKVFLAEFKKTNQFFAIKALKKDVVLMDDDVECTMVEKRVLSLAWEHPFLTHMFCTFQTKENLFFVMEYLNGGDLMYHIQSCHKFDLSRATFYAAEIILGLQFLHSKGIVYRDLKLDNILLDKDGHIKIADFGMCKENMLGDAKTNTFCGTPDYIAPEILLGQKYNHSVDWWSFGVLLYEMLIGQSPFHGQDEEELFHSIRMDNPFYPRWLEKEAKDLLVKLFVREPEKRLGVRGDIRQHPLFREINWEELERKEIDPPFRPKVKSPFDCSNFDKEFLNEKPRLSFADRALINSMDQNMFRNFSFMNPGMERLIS
T5 sequence (Q05655 whole entry): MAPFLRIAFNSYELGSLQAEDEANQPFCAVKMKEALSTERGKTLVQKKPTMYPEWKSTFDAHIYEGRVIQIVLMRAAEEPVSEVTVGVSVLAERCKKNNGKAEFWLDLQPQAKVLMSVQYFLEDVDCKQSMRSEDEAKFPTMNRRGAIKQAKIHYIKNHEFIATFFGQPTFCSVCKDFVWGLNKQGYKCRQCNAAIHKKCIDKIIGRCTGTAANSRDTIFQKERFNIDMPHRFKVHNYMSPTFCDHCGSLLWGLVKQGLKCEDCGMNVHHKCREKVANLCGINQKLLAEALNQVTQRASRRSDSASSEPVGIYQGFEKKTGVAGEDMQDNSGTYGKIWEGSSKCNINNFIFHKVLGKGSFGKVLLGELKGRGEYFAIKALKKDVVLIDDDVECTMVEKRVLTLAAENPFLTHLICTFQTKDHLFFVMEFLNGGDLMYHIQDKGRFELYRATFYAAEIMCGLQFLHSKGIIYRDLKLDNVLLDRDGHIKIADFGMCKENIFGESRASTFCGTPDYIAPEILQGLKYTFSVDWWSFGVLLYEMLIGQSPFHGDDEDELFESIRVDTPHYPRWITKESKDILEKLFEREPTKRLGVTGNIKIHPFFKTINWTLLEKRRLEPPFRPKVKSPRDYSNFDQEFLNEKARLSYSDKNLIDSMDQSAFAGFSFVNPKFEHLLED
T1 sequence (P24723 whole entry): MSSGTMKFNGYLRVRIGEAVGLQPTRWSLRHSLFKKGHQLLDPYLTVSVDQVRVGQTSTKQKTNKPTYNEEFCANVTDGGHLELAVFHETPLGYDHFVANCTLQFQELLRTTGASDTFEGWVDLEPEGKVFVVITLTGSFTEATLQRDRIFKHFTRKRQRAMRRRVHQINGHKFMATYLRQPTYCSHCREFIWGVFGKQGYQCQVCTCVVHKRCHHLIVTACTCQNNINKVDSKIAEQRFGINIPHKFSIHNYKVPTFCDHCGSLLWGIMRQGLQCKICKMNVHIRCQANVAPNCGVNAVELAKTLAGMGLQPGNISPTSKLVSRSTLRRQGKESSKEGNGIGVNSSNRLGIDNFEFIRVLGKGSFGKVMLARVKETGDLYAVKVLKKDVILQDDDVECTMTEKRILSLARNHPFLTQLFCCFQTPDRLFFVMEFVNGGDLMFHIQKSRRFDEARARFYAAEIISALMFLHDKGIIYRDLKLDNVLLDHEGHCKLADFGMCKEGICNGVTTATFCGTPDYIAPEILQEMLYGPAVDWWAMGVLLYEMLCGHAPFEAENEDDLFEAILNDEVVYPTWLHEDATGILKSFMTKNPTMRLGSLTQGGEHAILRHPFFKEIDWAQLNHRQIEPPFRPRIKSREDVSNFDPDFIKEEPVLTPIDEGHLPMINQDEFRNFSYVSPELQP

- IC50 (Human recombinant PKCη): 50 ± 9 nM
SMILES: CC(C)N1CCN(c2nc(C3=C(c4c[nH]c5ccccc45)C(=O)NC3=O)c3ccccc3n2)CC1 [Example 85]

- IC50 (Human recombinant PKCε): 20 ± 7 nM
SMILES: Cc1cccc2c(C3=C(c4nc(N5CCN(C)CC5)nc5ccccc45)C(=O)NC3=O)c[nH]c12 [Example 139]

SMILES: Cn1cc(C2=C(c3nc(N4CCNC5(CC5)C4)nc4ccccc34)C(=O)NC2=O)c2ccccc21 [Example 100]
- IC50 (Human recombinant PKCα): 39 ± 15 nM
- graft survival [1]: significantly increases the graft survival

- IC50 (Human recombinant PKCβ1): 8 ± 2 nM
SMILES: CN1CCN(c2cc(C3=C(c4c[nH]c5ccccc45)C(=O)NC3=O)c3ccccc3n2)CC1 [Example 163, 3-(1.H.-indol-3-yl)-4-[2-(4-methyl-piperazin-1-yl)-quinolin-4-yl]-pyrrole-2,5-dione]

- IC50 (Human recombinant PKCδ): 18 ± 8 nM
SMILES: CN1CCN(c2cc3ccccc3c(C3=C(c4c[nH]c5ccccc45)C(=O)NC3=O)n2)CC1 [Example 181, 3-(1.H.-Indol-3-yl)-4-[3-(4-methyl-piperazin-1-yl)-isoquinolin-1-yl]-pyrrole-2,5-dione]

- IC50 [2]: 42 ± 12 nM
- IC50 [3]: 168 ± 20 nM
- IC50 (Human recombinant PKCθ): < 10 nM
SMILES: CN1CCN(c2nc(C3=C(c4c[nH]c5ccccc45)C(=O)NC3=O)c3ccccc3n2)CC1 [Example 56, 3-(1.H.-indol-3-yl)-4-[2-(4-methyl-piperazin-1-yl)-quinazolin-4-yl]-pyrrole-2,5-dione]
